Values of other authors as cited in patent US20140080845A1, “USE OF ALLOPURINOL FOR THE TREATMENT OF HAND FOOT SKIN REACTION” (NOBERA PHARMA, S.L., priority 2009, published 2014).
Like-named read-outs stand apart in the source and are kept apart here.

Legend:
[1] = meta-analysis, treated patients

| solubility (in chloroform and in ether) | solubility (in dilute solutions of alkali hydroxides) | solubility (in water and alcohol) | SMILES | summary incidence of HFSR, grade 3 [1] [%] | summary incidence of HFSR, grades 1-3 [1] [%] |
| --- | --- | --- | --- | --- | --- |
| practically insoluble | dissolves | very slightly soluble | Oc1ncnc2[nH]ncc12 [Allopurinol, 1H-pyrazolo[3,4-d] pyrimidin-4-ol] |  |  |
|  |  |  | CNC(=O)c1cc(Oc2ccc(NC(=O)Nc3ccc(Cl)c(C(F)(F)F)c3)cc2)ccn1 [sorafenib] | 8.9 | 33.8 |
|  |  |  | CCN(CC)CCNC(=O)c1c(C)[nH]c(/C=C2\C(=O)Nc3ccc(F)cc32)c1C [sunitinib] | 5.5 | 18.9 |
